Measured values as given in ChEMBL document CHEMBL1122606, “cis-4-[[[(2-Chloroethyl)nitrosoamino]carbonyl]methylamino] cyclohexanecarboxylic acid, a nitrosourea with latent activity against an experimental solid tumor” (J Med Chem, 1984).

Tests used:
[1] = Half life period in phosphate buffer (pH 7.4); format: ADME
[2] = species on record: Mus musculus; experiment: Dose showing lethal effects on 10% of the mice bearing lewis lung tumors.; format: functional

Structure (SMILES) | half-life [1] [h] | LD10 [2] [mg/kg]
O=NN(CCCl)C(=O)NC1CCC(C(=O)O)CC1 (centres undefined) | 46 | 26
CN(C(=O)N(CCCl)N=O)C1CCC(C(=O)O)CC1 (centres undefined) | 4.5 | >400
